Starred links: 1 amine or outer side, 2 acyl side, 3 side chain; linkers in the order of their positions; H or OH if unused. Positions of bridges follow the written chain, without caps; N, C: chain ends. Non-standard residues stand in square brackets, D forms with d. Residues, ends and D or L forms follow the SMILES beside them. Suc = O=C(CCC(=O)[*:2])[*:1]; Nle = CCCC[C@H](N)C(=O)O

This assay concerns thrombin generation in human platelet poor plasma with skeletal muscle myosin. In words: Assay 2A: thrombin generation, recalcification of human platelet poor plasma + myosin. As to conditions: human platelet poor plasma 30%, myosin 50 nM, CaCl2 10 mmol/L; read-out: 2A (recalcification +myosin). Type of assay: biochemical. The method, then:
Activities of the various peptides and derivative compounds were also examined via assays using recalcification of human plasma. [One of] these assay format (2A) involves monitoring thrombin generation in platelet poor plasma (PPP). Specifically, pooled normal human platelet poor plasma (PPP) (obtained from George King Bio Medical Inc., Overland Park, Kans.) (30%) was incubated with skeletal muscle myosin at 50 nM in the presence of peptide in DMSO or DMSO alone for 5 min at 37° C. Then, fluorogenic thrombin substrate solution (Z-Gly-Gly-Arg-AMC) (I-1140) with CaCl2 (10 mmol/L final) alone was added to the reaction mixture (total 110 μl) to initiate coagulation. Thrombin generation was followed continuously for 25 min using SPECTRAmax GEMINI XS fluorometer (Molecular Devices, Sunnyvale, Calif.) with excitation and emission wavelengths set at 360 and 460 nm, respectively. The first derivative of fluorescence versus time was used to produce thrombin generation curves with the correction for substrate consumption and inner filter effect. For this assay 96 well plate (total 110 μL) or 384 well plates (total 30 μL) were used.
Activities obtained from Assay 2A (recalcification of human plasma in the presence of myosin) were used to rank the various peptides listed in Table 3. As noted above, this assay monitors recalcification of plasma to stimulate thrombin generation. In this assay, potency of the compounds was determined as the peptide concentration for 50% inhibition of thrombin generation, defined as “IC50”.
For `CC[C@H](C)[C@H](NC(=O)[C@H](C)NC(=O)[C@H](CCC(=O)O)NC(=O)[C@H](CCCNC(=N)N)NC(=O)[C@H](CCCNC(=N)N)NC(=O)[C@H](CCC(=O)O)NC(=O)[C@@H]1CCCCNC(=O)CCC(=O)NCCCC[C@@H]2NC(=O)[C@H](C)NC(=O)[C@H](CC(C)C)NC(=O)[C@H](Cc3ccccc3)NC(=O)[C@@H](NC(=O)[C@H](CCCNC(=N)N)NC(=O)[C@H](CS)NC(=O)[C@H](CCCNC(=N)N)NC(=O)[C@H](C)N)CCCCNC(=O)CCC(=O)NCCCC[C@H](NC(=O)[C@H](CCC(=O)O)NC(=O)[C@H](C(C)C)NC2=O)C(=O)N[C@@H](CCC(N)=O)C(=O)N[C@@H](CCCNC(=N)N)C(=O)N[C@@H](CCSC)C(=O)N1)C(=O)N[C@@H](Cc1ccccc1)C(=O)N[C@@H](CS)C(=O)N[C@H](C(=O)N[C@@H](CCC(N)=O)C(=O)N[C@@H](Cc1ccc(O)cc1)C(=O)N[C@@H](CC(N)=O)C(=O)N[C@H](C(=O)N[C@@H](CCCNC(=N)N)C(=O)N[C@@H](CO)C(=O)N[C@@H](Cc1ccccc1)C(=O)N[C@@H](CCSC)C(=O)N[C@@H](CC(N)=O)C(=O)N[C@H](C(=O)N[C@@H](CCCCN)C(=O)N[C@@H](Cc1c[nH]cn1)C(=O)N[C@@H](Cc1c[nH]c2ccccc12)C(=O)N1CCC[C@H]1C(=O)N[C@@H](Cc1c[nH]c2ccccc12)C(N)=O)C(C)C)[C@@H](C)CC)[C@@H](C)CC` [HC154] (H-ARCRKFLAKVEKQRMKERREAIFCIQYNIRSFMNVKHWPW-NH2; linker 5-12, 9-16 via Suc (inferred); N-terminus and C-terminus assumed), the IC50 is 9.4 µM.

Take `CC[C@H](C)[C@H](NC(=O)[C@H](C)N)C(=O)N[C@@H](Cc1ccccc1)C(=O)N[C@@H](CS)C(=O)N[C@H](C(=O)N[C@@H](CCC(N)=O)C(=O)N[C@@H](Cc1ccc(O)cc1)C(=O)N[C@@H](CC(N)=O)C(=O)N[C@H](C(=O)N[C@@H](CCCNC(=N)N)C(=O)N[C@@H](CO)C(=O)N[C@@H](Cc1ccccc1)C(=O)N[C@@H](CCSC)C(=O)N[C@@H](CC(N)=O)C(=O)N[C@H](C(=O)N[C@@H](CCCCN)C(=O)N[C@@H](Cc1c[nH]cn1)C(=O)N[C@@H](Cc1c[nH]c2ccccc12)C(=O)N1CCC[C@H]1C(=O)N[C@@H](Cc1c[nH]c2ccccc12)C(=O)N[C@@H](CCSC)C(=O)N[C@@H](CCCCN)C(=O)N[C@@H](CC(C)C)C(=O)N[C@@H](Cc1ccccc1)C(=O)N[C@@H](Cc1ccccc1)C(=O)N[C@@H](CCCCN)C(=O)N[C@H](C(=O)N[C@@H](CCCCN)C(N)=O)[C@@H](C)CC)C(C)C)[C@@H](C)CC)[C@@H](C)CC` [HC101] (H-AIFCIQYNIRSFMNVKHWPWMKLFFKIK-NH2; N-terminus and C-terminus assumed): the IC50 was 9 µM. For `CCCC[C@H](NC(=O)[C@H](Cc1ccccc1)NC(=O)[C@H](CO)NC(=O)[C@H](CCCNC(=N)N)NC(=O)[C@@H](NC(=O)[C@H](CC(N)=O)NC(=O)[C@H](Cc1ccc(O)cc1)NC(=O)[C@H](CCC(N)=O)NC(=O)[C@@H](NC(=O)[C@H](CS)NC(=O)[C@H](Cc1ccccc1)NC(=O)[C@@H](NC(=O)[C@H](C)NC(=O)[C@H](CCC(=O)O)NC(=O)[C@H](CCCNC(=N)N)NC(=O)[C@H](CCCNC(=N)N)NC(=O)[C@H](CCC(=O)O)NC(=O)[C@@H](NC(=O)[C@H](CCCC)NC(=O)[C@H](CCCNC(=N)N)NC(=O)[C@H](CCC(N)=O)NC(=O)[C@H](Cc1ccc(O)cc1)NC(=O)[C@H](CCC(=O)O)NC(=O)[C@@H](NC(=O)[C@H](CCCNC(=N)N)NC(=O)[C@H](C)NC(=O)[C@H](CC(C)C)NC(=O)[C@H](Cc1ccccc1)NC(=O)CNC(=O)[C@H](CCCNC(=N)N)NC(=O)[C@H](CS)NC(=O)[C@H](CCCNC(=N)N)NC(=O)[C@H](C)N)C(C)C)C(C)C)[C@@H](C)CC)[C@@H](C)CC)[C@@H](C)CC)C(=O)N[C@@H](CC(N)=O)C(=O)N[C@H](C(=O)N[C@@H](CCCCN)C(=O)N[C@@H](Cc1c[nH]cn1)C(=O)N[C@@H](Cc1c[nH]c2ccccc12)C(=O)N1CCC[C@H]1C(=O)N[C@@H](Cc1c[nH]c2ccccc12)C(N)=O)C(C)C` [HC095] (H-ARCRGFLARVEYQR[Nle]VERREAIFCIQYNIRSF[Nle]NVKHWPW-NH2; N-terminus and C-terminus assumed), the IC50 was 10 µM. The same measure for `CC[C@H](C)[C@H](NC(=O)[C@H](C)NC(=O)[C@H](CCC(=O)O)NC(=O)[C@H](CCCNC(=N)N)NC(=O)[C@H](CCCNC(=N)N)NC(=O)[C@H](CCC(=O)O)NC(=O)[C@@H](NC(=O)[C@H](CCSC)NC(=O)[C@H](CCCNC(=N)N)NC(=O)[C@H](CCC(N)=O)NC(=O)[C@H](Cc1ccc(O)cc1)NC(=O)[C@H](CCC(=O)O)NC(=O)[C@@H](NC(=O)[C@H](CCCNC(=N)N)NC(=O)[C@H](C)NC(=O)[C@H](CC(C)C)NC(=O)[C@H](Cc1ccccc1)NC(=O)CNC(=O)[C@H](CCCNC(=N)N)NC(=O)[C@H](CS)NC(=O)[C@H](CCCNC(=N)N)NC(=O)[C@H](C)N)C(C)C)C(C)C)C(=O)N[C@@H](Cc1ccccc1)C(=O)N[C@@H](CS)C(=O)N[C@H](C(=O)N[C@@H](CCC(N)=O)C(=O)N[C@H]1CCCCNC(=O)CCC(=O)NCCCC[C@@H](C(=O)N[C@H](C(=O)N[C@@H](CCCCN)C(=O)N[C@@H](Cc2c[nH]cn2)C(=O)N[C@@H](Cc2c[nH]c3ccccc23)C(=O)N2CCC[C@H]2C(=O)N[C@@H](Cc2c[nH]c3ccccc23)C(N)=O)C(C)C)NC(=O)[C@H](CCSC)NC(=O)[C@H](Cc2ccccc2)NC(=O)[C@H](CO)NC(=O)[C@H](CCCNC(=N)N)NC(=O)[C@H]([C@@H](C)CC)NC(=O)[C@H](CC(N)=O)NC1=O)[C@@H](C)CC` [HC077] (H-ARCRGFLARVEYQRMVERREAIFCIQKNIRSFMKVKHWPW-NH2; linker 27-34 via Suc; N-terminus and C-terminus assumed): 15 µM; for `CC[C@H](C)[C@H](NC(=O)[C@H](C)NC(=O)[C@H](CCC(=O)O)NC(=O)[C@@H]1CCCCNC(=O)CCC(=O)NCCCC[C@@H]2NC(=O)[C@H](CCC(=O)O)NC(=O)[C@H](C(C)C)NC(=O)[C@@H](NC(=O)[C@H](C)NC(=O)[C@H](CC(C)C)NC(=O)[C@H](Cc3ccccc3)NC(=O)CNC(=O)[C@H](CCCNC(=N)N)NC(=O)[C@H](CS)NC(=O)[C@H](CCCNC(=N)N)NC(=O)[C@H](C)N)CCCCNC(=O)CCC(=O)NCCCC[C@H](NC(=O)[C@H](CCSC)NC(=O)[C@H](CCCNC(=N)N)NC(=O)[C@H](CCC(N)=O)NC2=O)C(=O)N[C@@H](CCC(=O)O)C(=O)N[C@@H](CCCNC(=N)N)C(=O)N1)C(=O)N[C@@H](Cc1ccccc1)C(=O)N[C@@H](CS)C(=O)N[C@H](C(=O)N[C@@H](CCC(N)=O)C(=O)N[C@@H](Cc1ccc(O)cc1)C(=O)N[C@@H](CC(N)=O)C(=O)N[C@H](C(=O)N[C@@H](CCCNC(=N)N)C(=O)N[C@@H](CO)C(=O)N[C@@H](Cc1ccccc1)C(=O)N[C@@H](CCSC)C(=O)N[C@@H](CC(N)=O)C(=O)N[C@H](C(=O)N[C@@H](CCCCN)C(=O)N[C@@H](Cc1c[nH]cn1)C(=O)N[C@@H](Cc1c[nH]c2ccccc12)C(=O)N1CCC[C@H]1C(=O)N[C@@H](Cc1c[nH]c2ccccc12)C(N)=O)C(C)C)[C@@H](C)CC)[C@@H](C)CC` [HC157] (H-ARCRGFLAKVEKQRMKERKEAIFCIQYNIRSFMNVKHWPW-NH2; linker 9-16, 12-19 via Suc (inferred); N-terminus and C-terminus assumed): 11 µM.

The values above are taken from US20220340629A1, “Myosin Derived Peptides and Related Compounds with Anticoagulant Activities” (THE SCRIPPS RESEARCH INSTITUTE, priority 0001, published 2022).
